Experimental data taken from patent EP4810052A2, “HCRHR2 SELECTIVE POLYPEPTIDES” (Gubra A/S, priority 2023, dated 2026).
Like-named read-outs stand apart in the source and are kept apart here. Starred links: 1 amine or outer side, 2 acyl side, 3 side chain; linkers in the order of their positions; H or OH if unused. Non-standard residues stand in square brackets, D forms with d. Residues, ends and D or L forms follow the SMILES beside them. Groups on a side chain read outwards from the residue. *: point of attachment. C20 diacid = O=C(O)CCCCCCCCCCCCCCCCCCC(=O)*; γGlu = O=C(O)[C@H](CCC(=O)[*:2])N[*:1]; NMeI = CC[C@H](C)[C@H](NC)C(=O)O; Nle = CCCC[C@H](N)C(=O)O; AEEA = NCCOCCOCC(=O)O; Aib = CC(C)(N)C(=O)O

Columns and labels:
hCRHR1 = biological target: T1, hCRHR1 (Homo sapiens, UniProt P34998); experiment: HTRF cAMP assay, determination of hCRHR1 potency (peptide libraries 5 conc., purified peptides 11 conc.); type: cell-based
T1 sequence (P34998 24-415): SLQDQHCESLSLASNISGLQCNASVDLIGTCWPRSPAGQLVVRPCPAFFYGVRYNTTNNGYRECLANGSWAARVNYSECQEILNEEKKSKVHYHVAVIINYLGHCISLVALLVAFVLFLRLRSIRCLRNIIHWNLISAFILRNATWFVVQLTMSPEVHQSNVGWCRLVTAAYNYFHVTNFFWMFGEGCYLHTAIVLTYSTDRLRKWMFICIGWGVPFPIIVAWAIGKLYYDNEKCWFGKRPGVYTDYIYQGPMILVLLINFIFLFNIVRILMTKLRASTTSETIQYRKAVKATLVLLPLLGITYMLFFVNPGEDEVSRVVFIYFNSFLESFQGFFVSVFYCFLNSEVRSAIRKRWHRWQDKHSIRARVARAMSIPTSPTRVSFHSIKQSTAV
Outline: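 CHO-K1 cells stably expressing human CRHR1, thawed from frozen stocks just before use, were stimulated in suspension with agonist peptides. cAMP was measured by HTRF competitive immunoassay (cryptate anti-cAMP antibody vs d2-cAMP).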

hCRHR2 = biological target: T2, hCRHR2 (Homo sapiens, UniProt Q13324); experiment: HTRF cAMP assay, determination of hCRHR2 potency (peptide libraries 5 conc., purified peptides 11 conc.); type: cell-based
T2 sequence (Q13324 1-411): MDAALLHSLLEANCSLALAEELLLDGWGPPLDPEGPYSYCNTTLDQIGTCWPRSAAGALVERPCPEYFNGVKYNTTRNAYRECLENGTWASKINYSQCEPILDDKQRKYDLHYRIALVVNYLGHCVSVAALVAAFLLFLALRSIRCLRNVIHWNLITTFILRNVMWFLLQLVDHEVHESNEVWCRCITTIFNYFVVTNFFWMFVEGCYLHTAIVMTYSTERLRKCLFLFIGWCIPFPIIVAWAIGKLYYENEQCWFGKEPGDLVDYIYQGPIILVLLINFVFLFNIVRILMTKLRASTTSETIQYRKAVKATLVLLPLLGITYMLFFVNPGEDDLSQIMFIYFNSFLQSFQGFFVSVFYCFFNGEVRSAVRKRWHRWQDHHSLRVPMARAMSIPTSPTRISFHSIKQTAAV
Outline: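 CHO-K1 cells stably expressing human CRHR2, thawed from frozen stocks just before use and run in suspension; cAMP measured by competitive HTRF immunoassay (cryptate anti-cAMP, d2-cAMP). Agonist peptides tested at 5 (libraries) or 11 (purified) concentrations; EC50 from sigmoid variable-slope nonlinear regression.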

[1] = library peptides, matched molecular pairs L vs Nle in position X^38, read-out: Potency hCRHR1 pEC50 (converted)
[2] = library peptides, matched molecular pairs L vs Nle in position X^38, read-out: Potency hCRHR2 pEC50 (converted)

Row | EC50 (hCRHR1; [1]) | EC50 (hCRHR2; [2]) | Structure (SMILES) | also measured
1 |  |  | CCCC[C@H](NC(=O)[C@@H](NC(=O)[C@H](CCC(=O)O)NC(=O)[C@H](C)NC(=O)[C@H](CC(N)=O)NC(=O)[C@@H](NC(=O)[C@H](CCCCNC(=O)COCCOCCNC(=O)COCCOCCNC(=O)CC[C@H](NC(=O)CC[C@H](NC(=O)CCCCCCCCCCCCCCCCCCC(=O)O)C(=O)O)C(=O)O)NC(=O)[C@H](C)NC(=O)[C@H](CCC(=O)O)NC(=O)[C@H](CCC(=O)O)NC(=O)[C@H](CCCNC(=N)N)NC(=O)[C@H](CCC(N)=O)NC(=O)[C@H](C)NC(=O)[C@H](CCCNC(=N)N)NC(=O)[C@H](C)NC(=O)[C@H](CCCNC(=N)N)NC(=O)[C@H](C)NC(=O)[C@H](CCC(N)=O)NC(=O)[C@H](CCC(=O)O)NC(=O)[C@H](CC(C)C)NC(=O)[C@H](CC(C)C)NC(=O)[C@@H](NC(=O)[C@H](CCC(N)=O)NC(=O)[C@H](CC(C)C)NC(=O)[C@H](CC(C)C)NC(=O)CNC(=O)[C@@H](NC(=O)[C@@H]1CCCN1C(=O)[C@@H](NC(=O)[C@H](CC(=O)O)NC(=O)[C@H](CC(C)C)NC(=O)[C@H](CO)NC(=O)[C@H](CC(C)C)NC(=O)[C@@H](NC(=O)[C@@H](N)[C@@H](C)CC)C(C)C)C(C)C)[C@@H](C)CC)[C@@H](C)CC)[C@@H](C)O)[C@@H](C)CC)C(=O)N[C@@H](C)C(=O)N[C@@H](CCC(=O)O)C(=O)N[C@H](C(N)=O)C(C)C [SEQ ID NO: 34] (H-IVLSLDVPIGLLQILLEQARARAQREEAK([AEEA-AEEA-γGlu-γGlu-C20 diacid])TNAEI[Nle]AEV-NH2) | EC50 (hCRHR1; Table 3, matched molecular pairs X^38 L vs Nle, peptide library of Example 4, read-out: hCRHR1 pEC50 (converted)): 100000 nM; EC50 (hCRHR2; Table 3, matched molecular pairs X^38 L vs Nle, peptide library of Example 4, read-out: hCRHR2 pEC50 (converted)): 0.251 nM
2 | 158000 nM | 2 nM | CC[C@H](C)[C@H](N)C(=O)N[C@H](C(=O)N[C@@H](CC(C)C)C(=O)N[C@@H](CO)C(=O)N[C@@H](CC(C)C)C(=O)N[C@@H](CC(=O)O)C(=O)N[C@H](C(=O)N1CCC[C@H]1C(=O)N[C@H](C(=O)NCC(=O)N[C@@H](CC(C)C)C(=O)N[C@@H](CC(C)C)C(=O)N[C@@H](CCC(N)=O)C(=O)N[C@H](C(=O)N[C@@H](CC(C)C)C(=O)N[C@@H](CC(C)C)C(=O)N[C@@H](CCC(=O)O)C(=O)N[C@@H](CCC(N)=O)C(=O)N[C@@H](C)C(=O)N[C@@H](CCCNC(=N)N)C(=O)N[C@@H](C)C(=O)N[C@@H](CCCNC(=N)N)C(=O)N[C@@H](C)C(=O)N[C@@H](C)C(=O)N[C@@H](CCCNC(=N)N)C(=O)N[C@@H](CCC(=O)O)C(=O)N[C@@H](CCC(=O)O)C(=O)N[C@@H](C)C(=O)N[C@@H](CCCCNC(=O)COCCOCCNC(=O)COCCOCCNC(=O)CC[C@H](NC(=O)CC[C@H](NC(=O)CCCCCCCCCCCCCCCCCCC(=O)O)C(=O)O)C(=O)O)C(=O)N[C@H](C(=O)N[C@@H](CC(N)=O)C(=O)N[C@@H](C)C(=O)N[C@@H](CCC(=O)O)C(=O)N[C@H](C(=O)N[C@@H](CC(C)C)C(=O)N[C@@H](C)C(=O)N[C@@H](CCC(=O)O)C(=O)N[C@H](C(N)=O)[C@@H](C)CC)[C@@H](C)CC)[C@@H](C)O)[C@@H](C)CC)[C@@H](C)CC)C(C)C)C(C)C [compound 74] (H-IVLSLDVPIGLLQILLEQARARAAREEAK([AEEA-AEEA-γGlu-γGlu-C20 diacid])TNAEILAEI-NH2) | 
3 | 25100 nM | 0.126 nM | CC[C@H](C)[C@H](N)C(=O)N[C@H](C(=O)N[C@@H](CC(C)C)C(=O)N[C@@H](CO)C(=O)N[C@@H](CC(C)C)C(=O)N[C@@H](CC(=O)O)C(=O)N[C@H](C(=O)N1CCC[C@H]1C(=O)N[C@H](C(=O)NCC(=O)N[C@@H](CC(C)C)C(=O)N[C@@H](CC(C)C)C(=O)N[C@@H](CCC(N)=O)C(=O)N[C@H](C(=O)N[C@@H](CC(C)C)C(=O)N[C@@H](CC(C)C)C(=O)N[C@@H](CCC(=O)O)C(=O)N[C@@H](CCC(N)=O)C(=O)N[C@@H](C)C(=O)N[C@@H](CCCNC(=N)N)C(=O)N[C@@H](C)C(=O)N[C@@H](CCCNC(=N)N)C(=O)N[C@@H](C)C(=O)N[C@@H](CCC(N)=O)C(=O)N[C@@H](CCCNC(=N)N)C(=O)N[C@@H](CCC(=O)O)C(=O)N[C@@H](CCC(N)=O)C(=O)N[C@@H](C)C(=O)N[C@@H](CCCCNC(=O)COCCOCCNC(=O)COCCOCCNC(=O)CC[C@H](NC(=O)CC[C@H](NC(=O)CCCCCCCCCCCCCCCCCCC(=O)O)C(=O)O)C(=O)O)C(=O)N[C@H](C(=O)N[C@@H](CC(N)=O)C(=O)N[C@@H](C)C(=O)N[C@@H](CCC(=O)O)C(=O)N[C@H](C(=O)N[C@@H](CC(C)C)C(=O)N[C@@H](C)C(=O)N[C@@H](CCC(=O)O)C(=O)N[C@H](C(N)=O)[C@@H](C)CC)[C@@H](C)CC)[C@@H](C)O)[C@@H](C)CC)[C@@H](C)CC)C(C)C)C(C)C [compound 64] (H-IVLSLDVPIGLLQILLEQARARAQREQAK([AEEA-AEEA-γGlu-γGlu-C20 diacid])TNAEILAEI-NH2) | 
4 |  |  | CCCC[C@H](NC(=O)[C@@H](NC(=O)[C@H](CCC(=O)O)NC(=O)[C@H](C)NC(=O)[C@H](CC(N)=O)NC(=O)C(C)(C)NC(=O)[C@H](CCCCNC(=O)COCCOCCNC(=O)COCCOCCNC(=O)CC[C@H](NC(=O)CC[C@H](NC(=O)CCCCCCCCCCCCCCCCCCC(=O)O)C(=O)O)C(=O)O)NC(=O)[C@H](C)NC(=O)[C@H](CCC(N)=O)NC(=O)[C@H](CCC(=O)O)NC(=O)[C@H](CCCNC(=N)N)NC(=O)[C@H](C)NC(=O)[C@H](C)NC(=O)[C@H](CCCNC(=N)N)NC(=O)[C@H](C)NC(=O)[C@H](CCCNC(=N)N)NC(=O)[C@H](C)NC(=O)[C@H](CCC(N)=O)NC(=O)[C@H](CCCCN)NC(=O)[C@H](CC(C)C)NC(=O)[C@H](CC(C)C)NC(=O)[C@@H](NC(=O)[C@H](CCC(N)=O)NC(=O)[C@H](CC(C)C)NC(=O)[C@H](CC(C)C)NC(=O)CNC(=O)[C@@H](NC(=O)[C@@H]1CCCN1C(=O)[C@@H](NC(=O)[C@H](CC(=O)O)NC(=O)[C@H](CC(C)C)NC(=O)[C@H](CO)NC(=O)[C@H](CC(C)C)NC(=O)[C@@H](NC(=O)[C@@H](NC)[C@@H](C)CC)C(C)C)C(C)C)[C@@H](C)CC)[C@@H](C)CC)[C@@H](C)CC)C(=O)N[C@@H](C)C(=O)N[C@@H](CCC(=O)O)C(=O)N[C@H](C(N)=O)C(C)C [compound 233] (H-[NMeI]VLSLDVPIGLLQILLKQARARAAREQAK([AEEA-AEEA-γGlu-γGlu-C20 diacid])[Aib]NAEI[Nle]AEV-NH2) | EC50 (hCRHR1; Table 4, library peptides having X^38 = Nle, read-out: hCRHR1 pEC50 (converted)): 3160 nM; EC50 (hCRHR2; Table 4, library peptides having X^38 = Nle, read-out: hCRHR2 pEC50 (converted)): 0.0398 nM
